In patent US7153650B2, “Marker system for preparing and characterizing high-quality human embryonic stem cells” (Geron Corporation, priority 2003, dated 2006):
Marks after values point to notes of the source that are not given here.

Tested on: hES cells
Assay: Quantitative RT-PCR analysis of gene expression in hESC differentiation (culture with RA or DMSO)
Format: cell-based, human
Settings: for Fold Change, 130 kDa leucine-rich protein (LRP 130) mRNA / Fold Change, Bone marrow stromal antigen 2 (BST-2) mRNA / Fold Change, Bone morphogenetic protein receptor, type Ia (BMPR1A) (ALK-3) mRNA / Fold Change, EST (GA_28053, T24677) / Fold Change, Early development regulator 1 (polyhomeotic 1 homolog) (EDR1) mRNA / Fold Change, Ephrin type-a receptor 1 (EPHA1) mRNA / Fold Change, FLJ31267 (acetylglucosaminyltransferase-like protein) mRNA / Fold Change, Fibroblast growth factor receptor 3 precursor (FGFR-3) mRNA / Fold Change, Forkhead box h1 (FOXH1) mRNA / Fold Change, Forkhead box o1a (foxo1a) mRNA / Fold Change, Gamma-aminobutyric acid (GABA) A receptor, beta 3 mRNA / Fold Change, Gastrin-releasing peptide receptor (GRP-R) mRNA / Fold Change, Glypican-2 (cerebroglycan) mRNA / Fold Change, Hypothetical protein BC018070 mRNA / Fold Change, Hypothetical protein FLJ14549 mRNA / Fold Change, Kallmann syndrome 1 sequence (KAL1) mRNA / Fold Change, Krab-zinc finger protein SZF1-1 mRNA / Fold Change, Left-right determination, factor b (LEFTB) mRNA / Fold Change, Nell2 (NEL-like protein 2) mRNA / Fold Change, Notch 1 (N1) mRNA / Fold Change, Octamer-binding transcription factor 3a (OCT-3A) (OCT-4) mRNA / Fold Change, Podocalyxin-like (PODXL) mRNA / Fold Change, Potassium channel subfamily k member 5 (TASK-2) mRNA / Fold Change, Protein tyrosine phosphatase, receptor-type, z polypeptide 1 (PTPRZ1) mRNA / Fold Change, Roundabout, axon guidance receptor, homolog 1 (ROBO1) mRNA / Fold Change, Sal-like 1 (SALL1) mRNA / Fold Change, Secreted phosphoprotein 1 (osteopontin) mRNA / Fold Change, Solute carrier family 6, member 8 (SLC6A8) mRNA / Fold Change, Telomerase reverse transcriptase (TERT) mRNA / Fold Change, Teratocarcinoma-derived growth factor 1 (CRIPTO) mRNA / Fold Change, Thy-1 co-transcribed mRNA / Fold Change, Zic family member 3 (ZIC3) mRNA / Fold Change, Zinc finger protein of cerebellum ZIC2 mRNA / Fold Change, Zinc finger protein, HSAL2 mRNA / Fold Change, Pr domain containing 14 (PRDM14) mRNA: hES cells cultured 1 week with 500 nM RA or 0.5% DMSO; for Fold Change, Pr domain containing 14 (PRDM14) mRNA: normalised to 18S rRNA, 2^-ddCT
Procedure: To verify the expression patterns of particular genes of interest at the mRNA level, extracts of undifferentiated hES cells and their differentiated progeny were assayed by real-time PCR. Cells were cultured for 1 week with 0.5% dimethyl sulfoxide (DMSO) or 500 nM retinoic acid (RA). The samples were amplified using sequence-specific primers, and the rate of amplification was correlated with the expression level of each gene in the cell population.
Taqman™ RT-PCR was performed under the following conditions: 1×RT Master Mix (ABI), 300 nM for each primer, and 80 nM of probe, and 10 pg to 100 ng of total RNA in nuclease-free water. The reaction was conducted under default RT-PCR conditions of 48° C. hold for 30 min, 95° C. hold for 10 min, and 40 cycles of 95° C. at 15 sec and 60° C. hold for 1 min. RNA was isolated by a guanidinium isothiocyanate method (RNAeasy™ kit, Qiagen) according to manufacturer's instructions, and subsequently DNAse treated (DNAfree™ kit, Ambion). Gene-specific primers and probes were designed by PrimerExpress™ software (Ver. 1.5, ABI). Probe oligonucleotides were synthesized with the fluorescent indicators 6-carboxyfluorescein (FAM) and 6-carboxy-tetramethylrhodamine (TAMRA) at the 5′ and 3′ ends, respectively. Relative quantitation of gene expression between multiple samples was achieved by normalization against endogenous 18S ribosomal RNA (primer and probe from ABI) using the ΔΔCT method of quantitation (ABI). Fold change in expression level was calculated as 2^−ΔΔCT.
Since the cells have been cultured in RA and DMSO for a short period, they are at the early stages of differentiation, and the difference in expression level is less dramatic than it would be after further differentiation. Of particular interest for following or modulating the differentiation process are markers that show modified expression within the first week of differentiation by more than 2-fold (*), 5-fold (**), 10-fold (***), or 100-fold (****).
KALL and EPHAL were not tested.

[1] = H9 hES cells after culturing for 7 days with RA or DM (FIG. 1)

Row | SMILES | Fold Change, 130 kDa leucine-rich protein (LRP 130) mRNA | Fold Change, Bone marrow stromal antigen 2 (BST-2) mRNA | Fold Change, Bone morphogenetic protein receptor, type Ia (BMPR1A) (ALK-3) mRNA | Fold Change, EST (GA_28053, T24677) | Fold Change, Early development regulator 1 (polyhomeotic 1 homolog) (EDR1) mRNA | Fold Change, Ephrin type-a receptor 1 (EPHA1) mRNA | Fold Change, FLJ31267 (acetylglucosaminyltransferase-like protein) mRNA | Fold Change, Fibroblast growth factor receptor 3 precursor (FGFR-3) mRNA | Fold Change, Forkhead box h1 (FOXH1) mRNA | Fold Change, Forkhead box o1a (foxo1a) mRNA | Fold Change, Gamma-aminobutyric acid (GABA) A receptor, beta 3 mRNA | Fold Change, Gastrin-releasing peptide receptor (GRP-R) mRNA | Fold Change, Glypican-2 (cerebroglycan) mRNA | Fold Change, Hypothetical protein BC018070 mRNA | Fold Change, Hypothetical protein FLJ14549 mRNA | Fold Change, Kallmann syndrome 1 sequence (KAL1) mRNA | Fold Change, Krab-zinc finger protein SZF1-1 mRNA | Fold Change, Left-right determination, factor b (LEFTB) mRNA | Fold Change, Nell2 (NEL-like protein 2) mRNA | Fold Change, Notch 1 (N1) mRNA | also measured
1 | C[S+](C)[O-] [DMSO, dimethyl sulfoxide] | −1.9 fold | −1.9 fold | −2.4 fold | <−100* fold | −5.6 fold | −1.9 fold | −4.5 fold | 2.3 fold | −5.6 fold | −2.9 fold | −5.6 fold | −9.1 fold | −1.2 fold | −10.0 fold | −10.0 fold | −2.5 fold | −3.1 fold | −25.0 fold | −1.3 fold | 1.0 fold | Gene expression of ICAM in differentiated cells [1]: below the limit of detection; Gene expression of rhodopsin in differentiated cells [1]: below the limit of detection; Fold Change, Octamer-binding transcription factor 3a (OCT-3A) (OCT-4) mRNA: −7.7 fold; Fold Change, Podocalyxin-like (PODXL) mRNA: −4.3 fold; Fold Change, Potassium channel subfamily k member 5 (TASK-2) mRNA: 1.0 fold; Fold Change, Protein tyrosine phosphatase, receptor-type, z polypeptide 1 (PTPRZ1) mRNA: −3.3 fold; Fold Change, Roundabout, axon guidance receptor, homolog 1 (ROBO1) mRNA: 1.0 fold; Fold Change, Sal-like 1 (SALL1) mRNA: −1.3 fold; Fold Change, Secreted phosphoprotein 1 (osteopontin) mRNA: −10.0 fold; Fold Change, Solute carrier family 6, member 8 (SLC6A8) mRNA: −1.1 fold; Fold Change, Telomerase reverse transcriptase (TERT) mRNA: −2.3 fold; Fold Change, Teratocarcinoma-derived growth factor 1 (CRIPTO) mRNA: −12.5 fold; Fold Change, Thy-1 co-transcribed mRNA: −11.1 fold; Fold Change, Zic family member 3 (ZIC3) mRNA: −5.3 fold; Fold Change, Zinc finger protein of cerebellum ZIC2 mRNA: −2.9 fold; Fold Change, Zinc finger protein, HSAL2 mRNA: −2.8 fold; Fold Change, Pr domain containing 14 (PRDM14) mRNA: −8.3 fold
2 | CC1=C(/C=C/C(C)=C/C=C/C(C)=C/C(=O)O)C(C)(C)CCC1 [RA, retinoic acid] | −1.9 fold | 1.1 fold | −2.4 fold | <−100* fold | −1.8 fold | −1.3 fold | −2.3 fold | 1.5 fold | −1.8 fold | −1.6 fold | −2.8 fold | −6.3 fold | −1.5 fold | −3.2 fold | −2.3 fold | −1.1 fold | −1.8 fold | −16.7 fold | −1.3 fold | 1.3 fold | Fold Change, Octamer-binding transcription factor 3a (OCT-3A) (OCT-4) mRNA: −3.7 fold; Fold Change, Podocalyxin-like (PODXL) mRNA: −2.6 fold; Fold Change, Potassium channel subfamily k member 5 (TASK-2) mRNA: −1.6 fold; Fold Change, Protein tyrosine phosphatase, receptor-type, z polypeptide 1 (PTPRZ1) mRNA: −1.7 fold; Fold Change, Roundabout, axon guidance receptor, homolog 1 (ROBO1) mRNA: 1.1 fold; Fold Change, Sal-like 1 (SALL1) mRNA: 1.4 fold; Fold Change, Secreted phosphoprotein 1 (osteopontin) mRNA: −3.8 fold; Fold Change, Solute carrier family 6, member 8 (SLC6A8) mRNA: −1.1 fold; Fold Change, Telomerase reverse transcriptase (TERT) mRNA: −2.1 fold; Fold Change, Teratocarcinoma-derived growth factor 1 (CRIPTO) mRNA: −4.0 fold; Fold Change, Thy-1 co-transcribed mRNA: −12.5 fold; Fold Change, Zic family member 3 (ZIC3) mRNA: −1.7 fold; Fold Change, Zinc finger protein of cerebellum ZIC2 mRNA: 1.0 fold; Fold Change, Zinc finger protein, HSAL2 mRNA: −1.4 fold; Fold Change, Pr domain containing 14 (PRDM14) mRNA: −1.9 fold
